From PubChem BioAssay (NCI) come the findings set out here.

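Compound exposure: 48 hours, 5 concentrations, 96-well plates. GI50 = concentration required for 50% inhibition of growth. Definition used: TGI = concentration required for complete inhibition of growth.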

Test systems include CCRF-CEM leukemia; HCT-116 colon; HOP-62 NSCLC; KM12 colon; MDA-MB-231 breast; MOLT-4 leukemia; NCI-H522 lung; RXF 393 renal; SN12C renal; UACC-257 melanoma.
Common to all, as to test: NCI tumour cell line growth inhibition, 48 h

On to `CC1(C)CC(O)CC(C)(C)N1O`, for which the TGI in the assay with CCRF-CEM leukemia, in the assay with HCT-116 colon, in the assay on HOP-62 NSCLC, in the assay with KM12 colon, with MDA-MB-231 breast and in the assay on MOLT-4 leukemia was above 100 µM in each case. Moreover, the TGI with NCI-H522 lung, in the assay with RXF 393 renal, with SN12C renal and in the assay on UACC-257 melanoma was above 100 µM in each case. The GI50 with NCI-H522 lung was above 100 µM.

As for `Cn1cc(-c2cc(-c3cn(C)c4ccccc34)[nH]n2)c2ccccc21`, the GI50 in the assay with CCRF-CEM leukemia was 14.4 µM; with HCT-116 colon it was 19 µM; in the assay on HOP-62 NSCLC it was 17.3 µM; with KM12 colon, 4.58 µM; with MDA-MB-231 breast it was 8.06 µM; with MOLT-4 leukemia, 4.75 µM. In addition, the GI50 with NCI-H522 lung is 22.1 µM; with RXF 393 renal it was 14.7 µM; with SN12C renal, 1.95 µM; in the assay on UACC-257 melanoma, 80.6 µM. The TGI is 29.3 µM in the assay on CCRF-CEM leukemia; above 100 µM in the assay with HCT-116 colon; 60 µM in the assay with HOP-62 NSCLC; above 100 µM in the assay with KM12 colon; above 100 µM with MDA-MB-231 breast; 20.8 µM with MOLT-4 leukemia. The TGI in the assay on NCI-H522 lung is above 100 µM; in the assay with RXF 393 renal, 38.7 µM; in the assay with SN12C renal, 23.1 µM; with UACC-257 melanoma, above 100 µM.

As for `O=c1[nH]c2cc(Cl)ccc2nc1/C(=N\Nc1ccccc1)C(O)c1ccc2c(c1)OCO2` (stereo unspecified), the TGI in the assay with CCRF-CEM leukemia, in the assay on HCT-116 colon, in the assay on HOP-62 NSCLC, with KM12 colon, with MDA-MB-231 breast and with MOLT-4 leukemia was above 100 µM throughout. Also, the TGI in the assay on NCI-H522 lung, with RXF 393 renal, in the assay with SN12C renal and with UACC-257 melanoma was above 100 µM in each case.

For `O=C1/C(=C/c2ccc(Cl)cc2)CCC1CNc1ccc(Cl)cc1` (stereo unspecified), the TGI amounted to 15.5 µM in the assay with CCRF-CEM leukemia; 44.6 µM in the assay on HCT-116 colon; 56.1 µM with HOP-62 NSCLC; 11.7 µM in the assay on KM12 colon; 20.5 µM in the assay with MDA-MB-231 breast; 27.5 µM in the assay on MOLT-4 leukemia. Besides, the TGI with NCI-H522 lung is 3.89 µM; in the assay with RXF 393 renal it was 26.4 µM; in the assay with SN12C renal, 29.4 µM; in the assay with UACC-257 melanoma, 32.4 µM.

Regarding `COc1ccc(-c2nsc3c2NC(=O)CC3c2ccsc2)cc1` (stereo unspecified), the GI50 is 0.268 µM in the assay with CCRF-CEM leukemia; 0.126 µM with HCT-116 colon; 0.371 µM in the assay with HOP-62 NSCLC; 0.0715 µM with KM12 colon; 1.26 µM in the assay with MDA-MB-231 breast; 0.514 µM in the assay on MOLT-4 leukemia. Moreover, the GI50 in the assay on NCI-H522 lung is 0.139 µM; in the assay with RXF 393 renal, 0.367 µM; in the assay on SN12C renal it was 0.83 µM; in the assay with UACC-257 melanoma it was 3.08 µM. The TGI in the assay with CCRF-CEM leukemia was above 100 µM; in the assay with HCT-116 colon it was above 100 µM; in the assay on HOP-62 NSCLC, above 100 µM; in the assay with KM12 colon it was above 34 µM; in the assay on MDA-MB-231 breast, above 100 µM; in the assay with MOLT-4 leukemia, 24.1 µM. The TGI in the assay on NCI-H522 lung was 4.25 µM; in the assay on RXF 393 renal, above 100 µM; with SN12C renal it was above 100 µM; in the assay with UACC-257 melanoma, 38.4 µM.

Consider `[O]=[Sn]([CH]1CCCCC1)[CH]1CCCCC1`, for which the GI50 in the assay on CCRF-CEM leukemia is 0.0488 µM; in the assay on HCT-116 colon, 0.152 µM; in the assay with HOP-62 NSCLC, 0.407 µM; in the assay with KM12 colon, 0.341 µM; in the assay with MDA-MB-231 breast it was 0.28 µM; in the assay on MOLT-4 leukemia, 0.273 µM. The GI50 was 0.0711 µM in the assay on NCI-H522 lung, 0.0962 µM with RXF 393 renal, 0.315 µM with SN12C renal and 0.133 µM in the assay with UACC-257 melanoma. Besides, the TGI was 0.774 µM in the assay on CCRF-CEM leukemia; 0.32 µM with HCT-116 colon; 1.54 µM with HOP-62 NSCLC; 1.25 µM in the assay with KM12 colon; 1.04 µM with MDA-MB-231 breast; 0.217 µM with NCI-H522 lung. Besides, the values for the TGI in the assay on RXF 393 renal, in the assay on SN12C renal and in the assay with UACC-257 melanoma were 0.241 µM, 1.23 µM and 0.384 µM, respectively.

Turning to `CCn1c(-c2nonc2N)nc2ccccc21`, the GI50 in the assay on CCRF-CEM leukemia, with HCT-116 colon, in the assay on HOP-62 NSCLC, with KM12 colon, in the assay with MDA-MB-231 breast and with MOLT-4 leukemia was above 25 µM each time. Also, the GI50 in the assay with NCI-H522 lung was above 25 µM; in the assay on RXF 393 renal, 16.7 µM; in the assay on SN12C renal, above 25 µM; in the assay with UACC-257 melanoma, above 25 µM. In addition, the TGI with CCRF-CEM leukemia, in the assay with HCT-116 colon, in the assay with HOP-62 NSCLC, in the assay on KM12 colon, with MDA-MB-231 breast and with MOLT-4 leukemia was above 25 µM in each case. Moreover, the TGI in the assay on NCI-H522 lung, in the assay with RXF 393 renal, with SN12C renal and with UACC-257 melanoma was above 25 µM in each case.

As to `Nc1ncn([C@H]2CC(O)[C@@H](CO)S2)c(=O)n1` (stereo partly specified), the GI50 was 2.45 µM in the assay with CCRF-CEM leukemia; 0.371 µM in the assay with HCT-116 colon; 4.63 µM with HOP-62 NSCLC; 3.27 µM in the assay on KM12 colon; 3.57 µM in the assay with MDA-MB-231 breast; 1.08 µM in the assay on MOLT-4 leukemia. Besides, the GI50 is 0.154 µM in the assay on NCI-H522 lung, 11.1 µM with RXF 393 renal and 3.6 µM in the assay with SN12C renal. Further, the TGI with CCRF-CEM leukemia, in the assay with HCT-116 colon, with HOP-62 NSCLC, in the assay on KM12 colon, in the assay with MDA-MB-231 breast and in the assay on MOLT-4 leukemia was above 100 µM each time. Moreover, the TGI in the assay with NCI-H522 lung, in the assay with RXF 393 renal and with SN12C renal was above 100 µM in each case.

Take `O=[N+]([O-])c1cccc(/C=N/Nc2ccc3ccccc3n2)c1O`: the TGI in the assay with HCT-116 colon came to 4.77 µM; in the assay with HOP-62 NSCLC it was 8.9 µM; in the assay on KM12 colon, 32.9 µM; with MDA-MB-231 breast it was 25.6 µM; in the assay with MOLT-4 leukemia it was 10.7 µM; with NCI-H522 lung it was 7.52 µM. For the same molecule, the results for the TGI in the assay on RXF 393 renal, in the assay with SN12C renal and in the assay on UACC-257 melanoma were 17.4 µM, 16.1 µM and 7.67 µM, respectively.

As to `CCCCCCCCCCCCCCCCCc1nc(Cl)nc(Cl)c1Cl`, the TGI in the assay on CCRF-CEM leukemia, with HCT-116 colon, with HOP-62 NSCLC, in the assay on KM12 colon, in the assay with MDA-MB-231 breast and with MOLT-4 leukemia was above 100 µM each time. For the same molecule, the TGI in the assay on NCI-H522 lung, with RXF 393 renal and in the assay on SN12C renal was above 100 µM in each case.
